Assay results: patent publication US10183949B2, “Pyrimidinone derivative having autotaxin-inhibitory activity” (The University of Tokyo, priority 2014, dated 2019)

Target: T1, Human autotaxin enzyme (Homo sapiens, UniProt Q13822)
T1 construct: purchased R&D System
Assay: Evaluation of autotaxin inhibitor, 18:0 Lyso PC / choline assay (Test Example 2)
Assay type: biochemical
Settings: human autotaxin enzyme, 18:0 Lyso PC substrate, choline assay, room temperature 2 hours; read-out: Inhibitor activity (IC50)
Outline: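 Human autotaxin in 100 mM Tris-HCl pH 7.5, 150 mM NaCl, 5 mM MgCl2, 0.05% Triton X-100 reacted with 18:0 Lyso PC (200 μM stock) and test compound 2 h at room temperature. Released choline quantified via choline oxidase/peroxidase resorufin fluorescence (ex 531/em 598 nm, 20 min); inhibition vs no-compound and no-enzyme controls, concentration-response curve.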

Compound	IC50 [nM]
O=C(NCC1(CO)COC1)c1ccc(Cn2c(CCCC(F)(F)F)nc(-c3ccc(Cl)cc3)cc2=O)o1 [Compound I-0355]	100 to 1000
CNC(=O)NC1CCN(C(=O)Cn2c(CCCC(F)(F)F)nc(-c3ccc(C(F)(F)F)cc3)cc2=O)CC1 [Compound I-0356]	< 10
CC(C)(O)CN1CCN(C(=O)Cn2c(CCCC(F)(F)F)nc(-c3ccc(C(F)(F)F)cc3)cc2=O)CC1 [Compound I-0357]	100 to 1000
O=C(NCC1(CO)COC1)c1cccc(Cn2c(CCCC(F)(F)F)nc(-c3ccc(Cl)cc3)cc2=O)n1 [Compound I-0358]	10 to 100
CS(=O)(=O)N1CCN(C(=O)Cn2c(CCCC(F)(F)F)nc(-c3ccc(C(F)(F)F)cc3)cc2=O)CC1 [Compound I-0359]	10 to 100
CC(C)(C)C(=O)Nc1cc(Cl)ccc1-c1cc(=O)n(CC(=O)NCC2(CO)COC2)c(CCC(F)(F)F)n1 [Compound I-0360]	100 to 1000
CN1CNC(=O)C12CCN(C(=O)Cn1c(CCCC(F)(F)F)nc(-c3ccc(C(F)(F)F)cc3)cc1=O)CC2 [Compound I-0361]	10 to 100
O=C(Cn1c(CCCC(F)(F)F)nc(-c2ccc(C(F)(F)F)cc2)cc1=O)N1CCC(N2CCNC2=O)CC1 [Compound I-0362]	10 to 100
CCNC(=O)N1CCC(NC(=O)Cn2c(CCCC(F)(F)F)nc(-c3ccc(C(F)(F)F)cc3)cc2=O)CC1 [Compound I-0363]	10 to 100
CN(C)C(=O)NC1CCN(C(=O)Cn2c(CCCC(F)(F)F)nc(-c3ccc(C(F)(F)F)cc3)cc2=O)CC1 [Compound I-0364]	100 to 1000
CNC(=O)CN1CCC(NC(=O)Cn2c(CCCC(F)(F)F)nc(-c3ccc(C(F)(F)F)cc3)cc2=O)CC1 [Compound I-0365]	100 to 1000
CCS(=O)(=O)N1CCN(C(=O)Cn2c(CCCC(F)(F)F)nc(-c3ccc(C(F)(F)F)cc3)cc2=O)CC1 [Compound I-0366]	100 to 1000
CC(C)(C)C(=O)Nc1cc(Cl)ccc1-c1cc(=O)n(CC(=O)N2CCC(C(=O)O)CC2)c(CCC(F)(F)F)n1 [Compound I-0367]	10 to 100
O=C(Cn1c(CCCC(F)(F)F)nc(-c2ccc(C(F)(F)F)cc2)cc1=O)NCCc1nnc(-c2ccccc2)o1 [Compound I-0368]	10 to 100
O=C(Cn1c(CCCC(F)(F)F)nc(-c2ccc(C(F)(F)F)cc2)cc1=O)N1CCC(O)(Cc2ccccc2)CC1 [Compound I-0369]	100 to 1000
CCS(=O)(=O)N1CCC(NC(=O)Cn2c(CCCC(F)(F)F)nc(-c3ccc(C(F)(F)F)cc3)cc2=O)CC1 [Compound I-0370]	100 to 1000
Cc1nc(-c2ccc(Cl)cc2NC(=O)C(C)(C)C)cc(=O)n1CCO [Compound I-0371]	≥ 1000
COC(=O)Nc1cc(C#N)ccc1-c1cc(=O)n(CC(=O)NC(C)(C)C)c(C)n1 [Compound I-0372]	10 to 100
COC(=O)Nc1cc(C#N)ccc1-c1cc(=O)n(CC(=O)OC(C)(C)C#N)c(C)n1 [Compound I-0373]	10 to 100
COC(=O)Nc1cc(C#N)ccc1-c1cc(=O)n(CC(=O)N(C)C(C)(C)C)c(C)n1 [Compound I-0374]	10 to 100
COC(=O)Nc1cc(Cl)ccc1-c1cc(=O)n(CC(=O)OC(C)(C)C#N)c(C)n1 [Compound I-0375]	< 10
Cc1nc(-c2ccc(Cl)cc2NC(=O)C(C)(C)C)cc(=O)n1CC(=O)NC1(C#N)CC1 [Compound I-0376]	10 to 100
COC(=O)Nc1cc(Cl)ccc1-c1cc(=O)n(Cc2cccc(C(=N)NO)c2)c(C)n1 [Compound I-0377]	10 to 100
COC(=O)Nc1cc(C#N)ccc1-c1cc(=O)n(Cc2cccc(-c3nc(=O)o[nH]3)c2)c(C)n1 [Compound I-0378]	< 10

Compound	IC50 [nM]
COC(=O)Nc1cc(Cl)ccc1-c1cc(=O)n(Cc2cccc(-c3nc(=O)o[nH]3)c2)c(C)n1 [Compound I-0379]	< 10
Cc1nc(-c2ccc(Cl)cc2NC(=O)C(C)(C)C)cc(=O)n1CC(=O)NC1(C(=N)NO)CC1 [Compound I-0380]	10 to 100
CNC(=O)NC1CCN(C(=O)Cn2c(C)nc(-c3ccc(C#N)cc3NC(=O)OC)cc2=O)CC1 [Compound I-0381]	10 to 100
CCCCCc1nc(-c2ccc(Cl)cc2)cc(=O)n1CC(=O)N1CCC(c2nc(=O)o[nH]2)CC1 [Compound I-0382]	10 to 100
CNC(=O)NC1CCN(C(=O)Cn2c(C)nc(-c3ccc(Cl)cc3NC(=O)OC)cc2=O)CC1 [Compound I-0383]	10 to 100
COC(=O)Nc1cc(Cl)ccc1-c1cc(=O)n(CC(=O)N2C(C)(C)CC(O)CC2(C)C)c(C)n1 [Compound I-0384]	≥ 1000
Cc1nc(-c2ccc(C#N)cc2NC(=O)C(C)(C)C)cc(=O)n1CC(=O)NC1(c2nc(=O)o[nH]2)CC1 [Compound I-0385]	10 to 100
Cc1nc(-c2ccc(Cl)cc2NC(=O)C(C)(C)C)cc(=O)n1CC(=O)NC1(c2nc(=O)o[nH]2)CC1 [Compound I-0386]	10 to 100
O=C(Cn1c(CCCC(F)(F)F)nc(-c2ccc(C(F)(F)F)cc2)cc1=O)NC1(c2nc(=O)o[nH]2)CC1 [Compound I-0387]	10 to 100
CC(C)(C)OC(=O)Cn1cnc(-c2ccc(Cl)cc2)cc1=O [Compound I-0388]	≥ 1000
COC(=O)Nc1cc(C#N)ccc1-c1cc(=O)n(CC(=O)NC(C)C)c(C)n1 [Compound I-0389]	10 to 100
COC(=O)Nc1cc(Cl)ccc1-c1cc(=O)n(CC(=O)NC(C)C)c(C)n1 [Compound I-0390]	10 to 100
Cc1nc(-c2ccc(Cl)cc2NC(=O)C2CC2)cc(=O)n1CC(=O)NC(C)C [Compound I-0391]	10 to 100
COC(=O)Nc1cc(Cl)ccc1-c1cc(=O)n(CC(=O)NC2(C)CC2)c(C)n1 [Compound I-0392]	10 to 100
COC(=O)Nc1cc(Cl)ccc1-c1cc(=O)n(CC(=O)NC2COC2)c(C)n1 [Compound I-0393]	10 to 100
COC(=O)Nc1cc(C#N)ccc1-c1cc(=O)n(CC(=O)NC2(C#N)CC2)c(C)n1 [Compound I-0394]	< 10
COC(=O)Nc1cc(Cl)ccc1-c1cc(=O)n(CC(=O)N2CC(F)C2)c(C)n1 [Compound I-0395]	100 to 1000
O=C(Cn1cnc(-c2ccc(Cl)cc2)cc1=O)NC(Cc1ccccc1)C(=O)O (stereo not shown) [Compound I-0396]	≥ 1000
COC(=O)Nc1cc(C#N)ccc1-c1cc(=O)n(CC(=O)NC2(C)COC2)c(C)n1 [Compound I-0397]	10 to 100
COC(=O)Nc1cc(C#N)ccc1-c1cc(=O)n(CC(=O)N2CC(C)(O)C2)c(C)n1 [Compound I-0398]	100 to 1000
COC(=O)Nc1cc(C#N)ccc1-c1cc(=O)n(CC(=O)NCC(C)(C)O)c(C)n1 [Compound I-0399]	10 to 100
COC(=O)Nc1cc(C#N)ccc1-c1cc(=O)n(CC(=O)NC(C)(C)CO)c(C)n1 [Compound I-0400]	10 to 100
Cc1nc(-c2ccc(Cl)cc2NC(=O)C2CC2)cc(=O)n1CC(=O)NC1(C)CC1 [Compound I-0401]	10 to 100
O=C(Cn1cnc(-c2ccc(Cl)cc2)cc1=O)NCCCNC(=O)c1cn[nH]n1 [Compound I-0402]	≥ 1000

Compound	IC50 [nM]
COC(=O)Nc1cc(Cl)ccc1-c1cc(=O)n(CC(=O)NC2(C#N)CC2)c(C)n1 [Compound I-0403]	10 to 100
Cc1nc(-c2ccc(Cl)cc2NC(=O)C2CC2)cc(=O)n1CC(=O)NC1COC1 [Compound I-0404]	10 to 100
Cc1nc(-c2ccc(Cl)cc2NC(=O)C2CC2)cc(=O)n1CC(=O)NC(C)(C)C [Compound I-0405]	10 to 100
Cc1nc(-c2ccc(Cl)cc2NC(=O)C2CC2)cc(=O)n1CC(=O)NCC(N)=O [Compound I-0406]	10 to 100
CC(C)(C)NC(=O)Cn1cnc(-c2ccc(Cl)cc2NC(=O)C(C)(C)C)cc1=O [Compound I-0407]	10 to 100
Cc1nc(-c2ccc(Cl)cc2NC(=O)C2CC2)cc(=O)n1CC(=O)N1CC(F)C1 [Compound I-0408]	100 to 1000
CC(C)(C)C(=O)Nc1cc(Cl)ccc1-c1cc(=O)n(CC(=O)NCC(N)=O)cn1 [Compound I-0409]	100 to 1000
COC(=O)Nc1cc(Cl)ccc1-c1cc(=O)n(CC(=O)NC2(C)COC2)c(C)n1 [Compound I-0410]	< 10
COC(=O)Nc1cc(Cl)ccc1-c1cc(=O)n(CC(=O)N2CC(C)(O)C2)c(C)n1 [Compound I-0411]	100 to 1000
COC(=O)Nc1cc(Cl)ccc1-c1cc(=O)n(CC(=O)NC(C)(C)CO)c(C)n1 [Compound I-0412]	< 10
COC(=O)Nc1cc(Cl)ccc1-c1cc(=O)n(CC(=O)NCC(C)(C)O)c(C)n1 [Compound I-0413]	10 to 100
COC(=O)Nc1cc(C#N)ccc1-c1cc(=O)n(CC(=O)NCc2c[nH]nn2)c(C)n1 [Compound I-0414]	< 10
COC(=O)Nc1cc(Cl)ccc1-c1cc(=O)n(CC(=O)NC(C)(C)CF)c(C)n1 [Compound I-0415]	< 10
Cc1nc(-c2ccc(Cl)cc2NC(=O)C2CC2)cc(=O)n1CC(=O)NC1(C#N)CC1 [Compound I-0416]	10 to 100
COC(=O)Nc1cc(C#N)ccc1-c1cc(=O)n(CC(=O)NCC2(CO)CC2)c(C)n1 [Compound I-0417]	10 to 100
COC(=O)Nc1cc(C#N)ccc1-c1cc(=O)n(CC(=O)N2CCC(O)CC2)c(C)n1 [Compound I-0418]	10 to 100
Cc1nc(-c2ccc(Cl)cc2NC(=O)C2CC2)cc(=O)n1CC(=O)NC1(C)COC1 [Compound I-0419]	10 to 100
Cc1nc(-c2ccc(Cl)cc2NC(=O)C2CC2)cc(=O)n1CC(=O)N1CC(C)(O)C1 [Compound I-0420]	100 to 1000
COC(=O)Nc1cc(Cl)ccc1-c1cc(=O)n(CC(=O)NCc2c[nH]nn2)c(C)n1 [Compound I-0421]	< 10
Cc1nc(-c2ccc(Cl)cc2NC(=O)C2CC2)cc(=O)n1CC(=O)NC(C)(C)CO [Compound I-0422]	10 to 100
Cc1nc(-c2ccc(Cl)cc2NC(=O)C2CC2)cc(=O)n1CC(=O)NCC(C)(C)O [Compound I-0423]	10 to 100
Cc1nc(-c2ccc(Cl)cc2NC(=O)C2CC2)cc(=O)n1CC(=O)NC(C)(C)CF [Compound I-0424]	10 to 100
